According to article PMC7707621, “Oxidized Juncuenin B Analogues with Increased Antiproliferative Activity on Human Adherent Cell Lines: Semisynthesis and Biological Evaluation” (Journal of Natural Products, 2020):
Entries after “also recorded” stand apart in the source; their conditions may differ.

These compounds were tested on A2780 cells (assay: MTT antiproliferative assay on A2780). Settings: Homo sapiens, A2780, 10 μM; read-out: Growth inhibition (% ± SEM), A2780.
Format: cell-based, human
Description: (§1) The antiproliferative assays of the products were carried out by a standard MTT method on human breast (MCF-7, T47D), cervical (HeLa, SiHa, C33A), and ovarian (A2780) cancer cells, and NIH/3T3 mouse embryonic fibroblast cell lines. In the first step, the diastereomeric and racemic mixtures 1–11 and the starting compound, juncuenin B, were tested to obtain information about their antiproliferative activity.
(§2) The antiproliferative activity and tumor selectivity of the compounds were measured by standard MTT assays. Tumor cell lines MCF-7, T47D, HeLa, A2780, and noncancerous NIH/3T3 were provided by European Collection of Authenticated Cell Cultures (ECACC, Salisbury, UK); cell lines SiHa and C33A by LGC Standards GmbH (Wesel, Germany). All chemicals and materials used for the antiproliferative assays were purchased from Sigma Aldrich Ltd. (Budapest, Hungary).
(§3) Growth-inhibition properties of racemates and pure enantiomer compounds were determined by standard MTT assays on six human malignant gynecological cell lines (MCF-7, T47D, HeLa, SiHa, C33A, A2780). To investigate tumor selectivity, the MTT assay was repeated on mouse embryonic fibroblast cells (NIH/3T3) under the same conditions. All cell lines were maintained in minimal essential medium (MEM) supplemented with 10% fetal bovine serum, 1% nonessential amino acids, and 1% penicillin–streptomycin–amphotericin B mixture, and were stored in humidified air containing 5% CO2 at 37 °C. All cell types were seeded into 96–well plates at a density of 5000 with the exception of C33a, which was seeded at a density of 10 000 and treated by increasing concentrations (0.1–30 μM) of the compounds for 72 h under cell culturing conditions. After the incubation, 5 mg/mL MTT [3-(4,5-dimethylthiazol-2-yl)-2,5-diphenyltetrazolium bromide] solution was added to samples for 4 h and precipitated blue formazan crystals were dissolved in DMSO. Absorbance values of the samples were measured at 545 nm using a microplate reader (Stat Fax-2100, Awareness Technologies Inc., Palm City, FL, USA) and untreated cells were used as control. Normalized sigmoidal dose–response curves were fitted to the determined data and the IC50 values were calculated by GraphPad Prism 5.01 (GraphPad Software, San Diego, CA, USA). Cisplatin (Ebewe Pharma GmbH, Unterach, Austria) was used as a reference agent in the same concentration range.
`C=CC1=C(C)C(=O)C=C2c3ccc(O)c(C)c3CC[C@]21OCC` [Compound 7b, 8a-ethoxy-1,7-dimethyl-6-oxo-8-vinyl-9,10-dihydrophenanthrene-2-ols] gave an inhibition at 10 µM of less than 10%. `C=Cc1c(C)c(O)cc2c3c(ccc12)C(C)(OCC)C(=O)C=C3` (centres unmarked) [Compound 8] showed an inhibition at 10 µM of less than 10%.

Same assay, conditions: Homo sapiens, A2780, 30 μM; read-out: Growth inhibition (% ± SEM), A2780
For `C=CC1=C(C)C(=O)C=C2c3ccc(O)c(C)c3CC[C@]21OCC` [Compound 7b, 8a-ethoxy-1,7-dimethyl-6-oxo-8-vinyl-9,10-dihydrophenanthrene-2-ols], the inhibition at 30 µM was 20.6 ± 2.43%. `C=Cc1c(C)c(O)cc2c3c(ccc12)C(C)(OCC)C(=O)C=C3` (centres unmarked) [Compound 8] showed an inhibition at 30 µM of less than 10%.

Same assay, conditions: Homo sapiens, A2780; MTT, 0.1–30 μM, 72 h, mean ± SEM; read-out: calculated IC50 values, A2780
For `C=CC1=C(C)C(=O)C=C2c3ccc(O)c(C)c3CC[C@]21OCC` [Compound 7b, 8a-ethoxy-1,7-dimethyl-6-oxo-8-vinyl-9,10-dihydrophenanthrene-2-ols], the IC50 was greater than 30 µM.

The compounds below were run on MCF-7, T47D, HeLa, SiHa, C33A, A2780 cells (assay: MTT antiproliferative assay, panel of human gynecological cancer cell lines (result in words)). Settings: not given.
Format: cell-based
Description: as §1, §2, §3
In the case of `C=CC1=C(C)C(=O)C=C2c3ccc(O)c(C)c3CC[C@]21OCC` [Compound 7b, 8a-ethoxy-1,7-dimethyl-6-oxo-8-vinyl-9,10-dihydrophenanthrene-2-ols], the “antiproliferative activity (in words)” value is reported as “no activity; also recorded: no relevant influence on the cell proliferation”. For `C=Cc1c(C)c(O)cc2c3c(ccc12)C(C)(OCC)C(=O)C=C3` (centres unmarked) [Compound 8], the “antiproliferative activity (in words)” value was “did not exert antiproliferative activity; also recorded: No significant activities”.

These compounds were tested on NIH/3T3 mouse embryonic fibroblast cells (assay: MTT assay for tumor selectivity on NIH/3T3). Settings: Mus musculus, NIH3T3; 10 μM; read-out: Growth inhibition (% ± SEM), NIH.
Format: cell-based
Description: as §1, §2, §3
Work on `C=CC1=C(C)C(=O)C=C2c3ccc(O)c(C)c3CC[C@]21OCC` [Compound 7b, 8a-ethoxy-1,7-dimethyl-6-oxo-8-vinyl-9,10-dihydrophenanthrene-2-ols] yielded an inhibition at 10 µM of less than 10%.

Same assay, conditions: Mus musculus, NIH3T3; 30 μM; read-out: Growth inhibition (% ± SEM), NIH
`C=CC1=C(C)C(=O)C=C2c3ccc(O)c(C)c3CC[C@]21OCC` [Compound 7b, 8a-ethoxy-1,7-dimethyl-6-oxo-8-vinyl-9,10-dihydrophenanthrene-2-ols] was tested, and the inhibition at 30 µM was 10.5 ± 1%.

Same assay, conditions: Mus musculus, NIH3T3; MTT, 0.1–30 μM, 72 h, mean ± SEM; read-out: calculated IC50 values, NIH/3T3
With `C=CC1=C(C)C(=O)C=C2c3ccc(O)c(C)c3CC[C@]21OCC` [Compound 7b, 8a-ethoxy-1,7-dimethyl-6-oxo-8-vinyl-9,10-dihydrophenanthrene-2-ols] the IC50 was greater than 30 µM.

Each compound was assayed on MCF-7 cells (assay: MTT antiproliferative assay on MCF-7). Settings: Homo sapiens, MCF7, 10 μM; read-out: Growth inhibition (% ± SEM), MCF-7.
Format: cell-based, human
Description: as §1, §2, §3
For `C=CC1=C(C)C(=O)C=C2c3ccc(O)c(C)c3CC[C@]21OCC` [Compound 7b, 8a-ethoxy-1,7-dimethyl-6-oxo-8-vinyl-9,10-dihydrophenanthrene-2-ols], the inhibition at 10 µM was less than 10%. Compound `C=Cc1c(C)c(O)cc2c3c(ccc12)C(C)(OCC)C(=O)C=C3` (centres unmarked) [Compound 8] has an inhibition at 10 µM of 13 ± 0.63%.

Same assay, conditions: Homo sapiens, MCF7, 30 μM; read-out: Growth inhibition (% ± SEM), MCF-7
With `C=CC1=C(C)C(=O)C=C2c3ccc(O)c(C)c3CC[C@]21OCC` [Compound 7b, 8a-ethoxy-1,7-dimethyl-6-oxo-8-vinyl-9,10-dihydrophenanthrene-2-ols] the inhibition at 30 µM was less than 10%. In the case of `C=Cc1c(C)c(O)cc2c3c(ccc12)C(C)(OCC)C(=O)C=C3` (centres unmarked) [Compound 8], the inhibition at 30 µM is reported as 23.9 ± 2.11%.

Same assay, conditions: Homo sapiens, MCF7; MTT, 0.1–30 μM, 72 h, mean ± SEM; read-out: calculated IC50 values, MCF-7
Work on `C=CC1=C(C)C(=O)C=C2c3ccc(O)c(C)c3CC[C@]21OCC` [Compound 7b, 8a-ethoxy-1,7-dimethyl-6-oxo-8-vinyl-9,10-dihydrophenanthrene-2-ols] yielded an IC50 greater than 30 µM.

What follows are compounds tested on HeLa cells (assay: MTT antiproliferative assay on HeLa). Settings: Homo sapiens, HeLa, 10 μM; read-out: Growth inhibition (% ± SEM), HeLa.
Format: cell-based, human
Description: as §1, §2, §3
Work on `C=CC1=C(C)C(=O)C=C2c3ccc(O)c(C)c3CC[C@]21OCC` [Compound 7b, 8a-ethoxy-1,7-dimethyl-6-oxo-8-vinyl-9,10-dihydrophenanthrene-2-ols] yielded an inhibition at 10 µM of 15 ± 2.72%. Work on `C=Cc1c(C)c(O)cc2c3c(ccc12)C(C)(OCC)C(=O)C=C3` (centres unmarked) [Compound 8] yielded an inhibition at 10 µM of less than 10%.

Same assay, conditions: Homo sapiens, HeLa, 30 μM; read-out: Growth inhibition (% ± SEM), HeLa
In the case of `C=CC1=C(C)C(=O)C=C2c3ccc(O)c(C)c3CC[C@]21OCC` [Compound 7b, 8a-ethoxy-1,7-dimethyl-6-oxo-8-vinyl-9,10-dihydrophenanthrene-2-ols], the inhibition at 30 µM is reported as 31.7 ± 2.37%. With `C=Cc1c(C)c(O)cc2c3c(ccc12)C(C)(OCC)C(=O)C=C3` (centres unmarked) [Compound 8] the inhibition at 30 µM was 22.2 ± 1.15%.

Same assay, conditions: Homo sapiens, HeLa; MTT, 0.1–30 μM, 72 h, mean ± SEM; read-out: calculated IC50 values, HeLa
In the case of `C=CC1=C(C)C(=O)C=C2c3ccc(O)c(C)c3CC[C@]21OCC` [Compound 7b, 8a-ethoxy-1,7-dimethyl-6-oxo-8-vinyl-9,10-dihydrophenanthrene-2-ols], the IC50 is reported as greater than 30 µM.

The compounds below were run on C33A cells (assay: MTT antiproliferative assay on C33A). Settings: Homo sapiens, C-33-A, 10 μM; read-out: Growth inhibition (% ± SEM), C33a.
Format: cell-based, human
Description: as §1, §2, §3
`C=CC1=C(C)C(=O)C=C2c3ccc(O)c(C)c3CC[C@]21OCC` [Compound 7b, 8a-ethoxy-1,7-dimethyl-6-oxo-8-vinyl-9,10-dihydrophenanthrene-2-ols] was tested, and the inhibition at 10 µM was less than 10%. `C=Cc1c(C)c(O)cc2c3c(ccc12)C(C)(OCC)C(=O)C=C3` (centres unmarked) [Compound 8] was tested, and the inhibition at 10 µM was less than 10%.

Same assay, conditions: Homo sapiens, C-33-A, 30 μM; read-out: Growth inhibition (% ± SEM), C33a
Work on `C=CC1=C(C)C(=O)C=C2c3ccc(O)c(C)c3CC[C@]21OCC` [Compound 7b, 8a-ethoxy-1,7-dimethyl-6-oxo-8-vinyl-9,10-dihydrophenanthrene-2-ols] yielded an inhibition at 30 µM of 26 ± 3%. Compound `C=Cc1c(C)c(O)cc2c3c(ccc12)C(C)(OCC)C(=O)C=C3` (centres unmarked) [Compound 8] has an inhibition at 30 µM of 21.3 ± 1.52%.

Same assay, conditions: Homo sapiens, C-33-A; MTT, 0.1–30 μM, 72 h, mean ± SEM; read-out: calculated IC50 values, C33A
With `C=CC1=C(C)C(=O)C=C2c3ccc(O)c(C)c3CC[C@]21OCC` [Compound 7b, 8a-ethoxy-1,7-dimethyl-6-oxo-8-vinyl-9,10-dihydrophenanthrene-2-ols] the IC50 was greater than 30 µM.

What follows are compounds tested on SiHa cells (assay: MTT antiproliferative assay on SiHa). Settings: Homo sapiens, SiHa, 10 μM; read-out: Growth inhibition (% ± SEM), SiHa.
Format: cell-based, human
Description: as §1, §2, §3
Compound `C=CC1=C(C)C(=O)C=C2c3ccc(O)c(C)c3CC[C@]21OCC` [Compound 7b, 8a-ethoxy-1,7-dimethyl-6-oxo-8-vinyl-9,10-dihydrophenanthrene-2-ols] has an inhibition at 10 µM of less than 10%. For `C=Cc1c(C)c(O)cc2c3c(ccc12)C(C)(OCC)C(=O)C=C3` (centres unmarked) [Compound 8], the inhibition at 10 µM was less than 10%.

Same assay, conditions: Homo sapiens, SiHa, 30 μM; read-out: Growth inhibition (% ± SEM), SiHa
`C=CC1=C(C)C(=O)C=C2c3ccc(O)c(C)c3CC[C@]21OCC` [Compound 7b, 8a-ethoxy-1,7-dimethyl-6-oxo-8-vinyl-9,10-dihydrophenanthrene-2-ols] was tested, and the inhibition at 30 µM was less than 10%. For `C=Cc1c(C)c(O)cc2c3c(ccc12)C(C)(OCC)C(=O)C=C3` (centres unmarked) [Compound 8], the inhibition at 30 µM was 16.7 ± 2.83%.

Same assay, conditions: Homo sapiens, SiHa; MTT, 0.1–30 μM, 72 h, mean ± SEM; read-out: calculated IC50 values, SiHa
For `C=CC1=C(C)C(=O)C=C2c3ccc(O)c(C)c3CC[C@]21OCC` [Compound 7b, 8a-ethoxy-1,7-dimethyl-6-oxo-8-vinyl-9,10-dihydrophenanthrene-2-ols], the IC50 was greater than 30 µM.

What follows are compounds tested on T47D cells (assay: MTT antiproliferative assay on T47D). Settings: Homo sapiens, T47D, 10 μM; read-out: Growth inhibition (% ± SEM), T47d.
Format: cell-based, human
Description: as §1, §2, §3
In the case of `C=CC1=C(C)C(=O)C=C2c3ccc(O)c(C)c3CC[C@]21OCC` [Compound 7b, 8a-ethoxy-1,7-dimethyl-6-oxo-8-vinyl-9,10-dihydrophenanthrene-2-ols], the inhibition at 10 µM is reported as less than 10%. `C=Cc1c(C)c(O)cc2c3c(ccc12)C(C)(OCC)C(=O)C=C3` (centres unmarked) [Compound 8] was tested, and the inhibition at 10 µM was less than 10%.

Same assay, conditions: Homo sapiens, T47D, 30 μM; read-out: Growth inhibition (% ± SEM), T47d
`C=CC1=C(C)C(=O)C=C2c3ccc(O)c(C)c3CC[C@]21OCC` [Compound 7b, 8a-ethoxy-1,7-dimethyl-6-oxo-8-vinyl-9,10-dihydrophenanthrene-2-ols] gave an inhibition at 30 µM of 13.5 ± 2.41%. `C=Cc1c(C)c(O)cc2c3c(ccc12)C(C)(OCC)C(=O)C=C3` (centres unmarked) [Compound 8] gave an inhibition at 30 µM of 14.1 ± 2.02%.

Same assay, conditions: Homo sapiens, T47D; MTT, 0.1–30 μM, 72 h, mean ± SEM; read-out: calculated IC50 values, T47D
`C=CC1=C(C)C(=O)C=C2c3ccc(O)c(C)c3CC[C@]21OCC` [Compound 7b, 8a-ethoxy-1,7-dimethyl-6-oxo-8-vinyl-9,10-dihydrophenanthrene-2-ols] was tested, and the IC50 was greater than 30 µM.
